# From US5698518A, “Method for regulating inflammation and tumor growth with calmodulin, calmodulin analogues or calmodulin antagonists” (Oklahoma Medical Research Foundation, priority 1994, dated 1997)
# Tests used:
# cultured HUVECs = test: Prostaglandin release from cultured HUVECs (competitive enzyme immunoassay); assay type: cell-based, human; details: ASA 10^-4 M for 1 hour
# Description: Endothelial cells were treated with inhibitors of enzymes responsible for production of prostaglandins and nitric oxide. In each case, endothelial cells were pretreated by addition of the inhibitor to the culture medium for one hour, before the addition of blood and the TNF-provoking agonist (e.g., LPS) to the wells. Acetylsalicylic acid (ASA, aspirin), (Sigma, St. Louis, Mo.), which is an irreversible inhibitor of the cyclooxygenase enzyme, was removed after the incubation by washing the endothelial cells three times with Hanks balanced salt solution (HBSS) before adding the blood. Indomethacin and N^G -nitro-L-arginine methyl ester (L-NAME; Sigma), which are competitive inhibitors of cyclooxygenase, and nitric oxide synthase, respectively, were added to the HBSS wash solution and again directly to the blood as soon as it had been pipetted into the wells, so that the target enzyme would have no opportunity to escape inhibition. With indomethacin (which has been reported to increase TNF release from macrophages by blocking autocrine production of PGE2), controls were run in which indomethacin was added to the blood in the absence of endothelium.
# Therefore, endothelial monolayers were treated with ASA (10^-4 M for 1 hour), an irreversible cyclooxygenase inhibitor. ASA attenuated the inhibitory activity, but by less than 40% of the total inhibition. […]
# [1] = tested on: elastase release in whole blood over endothelial cell monolayer; test: Augmentation of elastase release in whole blood by HUVEC monolayer; assay type: cell-based, human; details: whole blood with endotoxin
# Description: An assay similar to that described in Example 2 was developed for neutrophil elastase in the same plasma samples (measured as the complex between elastase, and α-1-antitrypsin) using a murine monoclonal antibody (HEL 1076) to elastase as capture and biotinylated murine monoclonal antibody (HAT 1099) as detector. The useful range of this assay was 0.05 to 5 nM complex. These antibodies were obtained by immunizing mice with human neutrophil elastase, human α-1-antitrypsin (Athens Research and Technology, Athens, Ga.) and a complex of both using the method detailed in Example 2. Antibodies were screened for their ability to react with native and complexed antigen. Antibodies were purified from ascites using protein G (Pharmacia, Piscataway, N.J.) affinity chromatography and biotinylated using NHS-LC-biotin (Pierce). In addition to the inhibition of TNF release, calmodulin also augmented elastase release similar to that observed with the endothelial cell monolayer (FIG. 1, authentic calmodulin; FIG. 2, purified endothelial cell calmodulin).
# In addition, elastase release in whole blood measured as the complex of elastase with α-1 protease inhibitor (α-1 antitrypsin) was augmented by the presence of an endothelial cell monolayer as shown in FIG. 11 (n=8). […]
# [2] = tested on: inhibitory activity of porcine aortic endothelium on TNF release in whole blood; test: TNF release in whole blood over pig aorta segments in situ; assay type: cell-based; details: ASA pretreatment of vessel wall
# Description: (§1) To exclude the possibility that the inhibitory activity of endothelial monolayers was merely an artifact of tissue culture, experiments were performed using intact endothelium in situ in segments of porcine aorta. Normal farm pigs (Spotted Polland) weighing 30-35 kg were euthanized with pentobarbital and the thoracoabdominal aorta removed aseptically. The harvested aorta was rinsed in HBSS containing penicillin 50 IU/ml and streptomycin 50 μg/ml. The aorta was then opened longitudinally along its dorsal surface. The endothelial cell surface was left intact, or denuded mechanically by scraping gently ten times with a metal spatula. The opened aorta was then clamped into a multi-well plexiglass template device, such that the intimal surface of the aorta formed the bottom of the well. The wells were washed with HBSS and blood added and processed exactly as above for 24 well plates.
# (§2) As with cultured endothelial cells, TNF release was inhibited when whole blood was incubated in the presence of an intact aortic endothelial surface as compared to an adjacent mechanically denuded segment of vessel (FIG. 21; n=6).
# [3] = tested on: elastase release in whole blood over porcine aortic segments; test: Elastase release in whole blood over pig aorta segments in situ; assay type: cell-based; details: ASA pretreatment; intact or denuded segment
# Description: as §1, §2
# [4] = tested on: endothelial inhibition of LPS-induced TNF release in whole blood; test: Endothelial (HUVEC) inhibition of LPS-induced TNF release in whole blood, endothelium treated with enzyme inhibitors; assay type: cell-based, human
# Description: (§3) Blood from healthy volunteers was drawn from the antecubital vein into a heparinized syringe (10 U/ml final; UpJohn, Kalamazoo, Mich.). 24-well culture plates (Costar, Cambridge, Mass.) were coated with 2% (w/v) gelatin (Sigma) and washed three times with Hanks balanced salt solution (HBSS) (Gibco BRL, Gaithersburg, Md.). Only the center eight wells were used to minimize evaporation. Then, 200 μl of blood was pipetted into each well. For comparative experiments involving endothelial cell monolayers, endothelial cells were seeded onto gelatin-coated wells at 3-5×10^5 cells per well 48 hours prior to experimentation. These wells were washed three times with HBSS and heparinized whole blood added as above. In most cases, the same plate would contain wells with and without endothelium for comparison purposes.
# (§4) Test reagents suspended in HBSS (8 to 10 μl) were added to the wells immediately after the blood. Plates were incubated at 37° C. in room air/5% CO2 on an orbital shaker at 150 rpm; incubations were four hours unless otherwise noted. The blood then was transferred to microcentrifuge tubes and centrifuged at 500× g for 10 minutes. The resulting platelet-poor plasma was collected and assayed for TNF immediately, as per Example 2 or stored frozen at -70° C. until use.
# Endothelial cells were treated with inhibitors of enzymes responsible for production of prostaglandins and nitric oxide. […]
# [5] = tested on: TNF release in whole blood; test: TNF release in whole blood evoked by other agonists; assay type: cell-based, human; details: 0.3 to 1 μg/ml
# Description: as §3, §4
# In most experiments, LPS (from E. coli strain 055:B5, Difco) was used to stimulate TNF release. […]
# [6] = tested on: LPS-induced TNF release in whole blood; test: LPS-induced TNF release in whole blood (TNF ELISA); assay type: cell-based, human; details: for inhibition of LPS-induced TNF release: 10^-6 M, added directly to whole blood
# Description: Immunoreactive TNF was measured using a sandwich ELISA sensitive to ≈0.1 ng/ml TNF. 96-well Immulon IV microtiter plates (Dynatech, Chantilly, Va.) were coated overnight at 4° C. with a monoclonal anti-TNF antibody, TNF 1286 or TNF 1311 (5 μg/ml in TBS, 50 μl per well).
# The next morning the ELISA plates were washed three times with TBS with 0.1% (v/v) Tween 20 (Sigma) and blocked for one hour with 1% BSA in TBS. Plates were then washed three times. Plasma samples were diluted 1:5 in 0.1% BSA in TBS, and 50 μl/well pipetted onto the plates and allowed to incubate at 37° C. for one hour. TNF standards were made up by addition of known amounts of recombinant human TNF-α (Upstate Biologicals Inc., Lake Placid, N.Y.) to pooled heparinized normal plasma diluted 1:5 in TBS/BSA. All samples and standards were assayed in duplicate. Plates were washed three times and biotinylated goat anti-TNF antibody or biotinylated monoclonal TNF 1289 (2 μg/ml in 0.1% BSA in TBS, 50 μl/well) was applied and incubated at 37° C. for one hour. Plates were washed three times and streptavidin-alkaline phosphatase (Gibco BRL, Grand Island, N.Y.) (0.025 μg/ml in 0.1% BSA in TBS, 50 μl/well) was applied and incubated at 37° C. for one hour. Following a final four washes, an amplified substrate (Gibco BRL) was applied according to the manufacturer's directions. Plates were read at 492 nm on a microtiter plate reader (Molecular Devices, Palo Alto, Calif.) and values obtained by comparing unknowns to a standard curve using a four-parameter fit. The useful range of this assay was 1-50 ng/ml.
# as §3, §4
# In most experiments, LPS (from E. coli strain 055:B5, Difco) was used to stimulate TNF release. Other agonists used were zymosan (Sigma, St. Louis, Mo.), muramyl dipeptide (Sigma), recombinant human interferon-γ (Mallinckrodt, Paris, Ky.), and recombinant human interleukin-1β (Collaborative Research, Bedford, Mass.). In some experiments, prostaglandin E2 (PGE2) and the stable prostacyclin analogue, carbacyclin (both from Cayman Chemical, Ann Arbor, Mich.) were added just before the LPS. These were dissolved as a 2.84×10^-3 M stock solution in DMSO and diluted in HBSS; buffer controls with the same concentrations of DMSO were assayed in parallel.
# [7] = tested on: human peripheral blood mononuclear cells (PBMC); test: LPS-induced TNF production by isolated peripheral blood mononuclear cells; assay type: cell-based; details: PGE2 10^-7 M, n=4, read-out: inhibition of TNF production by isolated PBMCs
# Description: To establish whether the inhibitory effect of the endothelium was exerted directly on monocytes or required an intermediary blood cell, human peripheral blood mononuclear cells (PBMC) were prepared from freshly drawn heparinized blood by density-gradient separation on Ficoll-Hypaque (Mono-Poly Resolving Medium, Flow Laboratories, McLean, Va.). Furmaniak-Kazmierczak, et al., "Protein S enhances C4b binding protein interaction with neutrophil," Blood 81:405-411 (1993). Isolated PBMC were washed three times with RPMI 1640 (Mediatech) and resuspended at a concentration of 3-5×10^6 cells/ml. 200 μl aliquots were added to 24-well tissue culture plates, incubated, and assayed as described with whole blood.
# Mononuclear cells (4.47±0.94×10^6 /ml) isolated from fresh whole blood released TNF dose-dependently in response to LPS in a manner similar to whole blood.
# [8] = tested on: TNF release in whole blood in response to E. coli; test: TNF release in whole blood in response to gentamicin-killed E. coli; assay type: cell-based, human; details: data not shown
# Description: Whole gentamicin-killed E. coli were examined as another stimulus that probably evokes TNF release by several different pathways; for example, they serve as a phagocytic stimulus and also activate complement components. A single colony of E. coli serotype B7 086a61 (ATCC#33985) on an LB plate was cultured overnight in LB Medium (Difco, Detroit, Mich.). The next morning the cells were washed three times in Hanks balanced salt solution (HBSS) and then resuspended in HBSS to 5.7×10^9 cells per ml. Before addition to blood, bacteria were killed by treatment with gentamicin sulfate (Elkins-Sinn, Cherry Hill, N.J.), 500 μg/ml for one hour. TNF release assays were performed according to procedures given in Example 2.
compound,measurement,setting,value
"CC(=O)Oc1ccccc1C(=O)O [ASA, Acetylsalicylic acid]",PGE2 release from cultured HUVECs after treatment,"cultured HUVECs; untreated 0.93 nM, 0.2 nM is limit of detection",< 0.2 nM
same,prostacyclin release from cultured HUVECs after treatment,cultured HUVECs; untreated 4.0 nM,0.26 nM
same,effect on endothelial augmentation of elastase release,[1],not changed
same,effect on TNF-inhibitory activity of aortic endothelium,[2],partially reduced
same,effect on stimulation of elastase release by aortic segments,[3],did not significantly alter
"COC(=O)[C@@H](N)CCCN=C(N)N[N+](=O)[O-] [L-NAME, N^G -nitro-L-arginine methyl ester]",effect on endothelial inhibition of TNF release,[4]; L-NAME 10^-4 M,No reduction
"CC(=O)N[C@H]1C(O)O[C@H](CO)[C@@H](O)[C@@H]1O[C@H](C)C(=O)N[C@@H](C)C(=O)N[C@H](CCC(=O)O)C(N)=O (some centres unmarked) [Muramyl dipeptide, muramyl dipeptide]",TNF release agonist activity alone,[5],weak agonists
"CCCCC[C@H](O)/C=C/[C@H]1[C@H](O)CC(=O)[C@@H]1C/C=C\CCCC(=O)O [PGE2, prostaglandin E2]",inhibition of LPS-induced TNF release,[6]; no endothelial cells,almost complete suppression
same,inhibition at 0.1 µM,"[6]; Homo sapiens, PGE2 10^-7 M, n=12, read-out: inhibition of whole-blood TNF production",83.6 ± 2.7%
same,potency relative to carbacyclin (inhibition of LPS-induced TNF release),"[6]; whole blood, no endothelial cells",at least 10 fold
same,inhibition at 0.1 µM,[7],63.9 ± 9.6%
CCCCC[C@H](O)/C=C/[C@@H]1[C@H]2C/C(=C/CCCC(=O)O)C[C@H]2C[C@H]1O [carbacyclin],inhibition of LPS-induced TNF release,[6]; no endothelial cells,almost complete suppression
"COc1ccc2c(c1)c(CC(=O)O)c(C)n2C(=O)c1ccc(Cl)cc1 [indomethacin, Indomethacin]",effect on LPS-induced TNF release in the absence of endothelium,"[6]; indomethacin added to blood, no endothelium",marginally higher TNF release
same,effect on inhibitory effect of endothelial cells in suspension on TNF release,[4]; endothelial cells in suspension,did not block
same,effect on endothelial augmentation of elastase release,[1],not changed
Polymyxin B,effect on TNF response to LPS,"[6]; whole blood, data not shown",dose-dependently antagonized
same,effect on TNF response to E. coli,[8],unaffected
